# Test results published in PMC6240685, “Strong Inhibitory Effect, Low Cytotoxicity and High Plasma Stability of Steroidal Inhibitors of N-Methyl-D-Aspartate Receptors With C-3 Amide Structural Motif” (Frontiers in Pharmacology, 2018).
# How the values were obtained:
# [1] = Plasma stability, rat plasma; assay type: in vitro ADME; details: rat, plasma
# HepG2 cells = test: ROS induction (CM-H2DCFDA); assay type: cell-based; details: Homo sapiens, HepG2, 72 h; read-out: ROS induction EC50
# Procedure: (A) Hepatotoxicity provoked by compound 4 was assessed after 72 h incubation of HepG2 cells in low glucose medium (5 mM) in the presence of compound 4 (0.25–100 μM). (B) Mitochondrial toxicity was determined after 24 h incubation of HepG2 cells in either high glucose medium (25 mM) or galactose medium (10 mM) in the presence of compound 4 (2.5–150 μM). Cell viabilities were recorded in triplicates in three independent experiments and expressed as percentage of vehicle control ± SD and IC50 values were determined by GraphPad Prism software using following equation: Y = Bottom + (Top–Bottom)/(1 + 10ˆ((LogIC50-X)^∗HillSlope)), where IC50 is the concentration of compound 4 that inhibits cell viability half way between Bottom and Top plateaus, X is compound 4 concentration and HillSlope describes the steepness of the family of curves. […] (C) Concentration-dependent effect on ROS level. HepG2 cells were treated with compound 4 (0.25–100 μM) for 72 h, and then the intracellular level of total ROS in relative fluorescence units (RFU) was detected. The data are presented as the mean ± SD for at least three independent experiments and each experiment was carried out in triplicate. Final concentration of DMSO in samples was 1%. […] Single asterisks (^∗) indicate a significant difference (P < 0.05) compared to 1% DMSO control (one-way ANOVA with Dunnett’s post-test).
# The effect of neurosteroids on oxidative stress was determined using general oxidative stress indicator CM-H2DCFDA (Thermo Fisher Scientific, Waltham, MA, United States) according to the manufacturer’s instructions. Briefly HepG2 cells were seeded in a 96-well plate at a density of 13,500 cells per well. After 24 h, the tested neurosteroids were added to the culture media and incubated for 72 h. Subsequently, cells were washed with HBSS, treated with 100 μL of 1 μM CM-H2DCF-DA solution in HBSS and incubated for 1 h in the dark at 37°C. Finally, cells were washed three times with HBSS and the fluorescence was measured using 495 excitation and 527 emission in fluorescence microplate reader (Cytation 3, Winooski, VT, United States). IC50 index values were determined by GraphPad Prism version 5.00 for Windows (GraphPad Software, La Jolla, CA, United States).
# native NMDARs = test: Inhibition of native NMDAR responses in cultured hippocampal neurons; assay type: cell-based, rat
# Procedure: FIGURE 8 The effect of compound 6 on peak and steady-state responses of native NMDARs, AMPARs, and GABARs. (A) Examples of traces obtained from cultured hippocampal neurons. Compound 6 (10 μM) was pre-applied in the absence of agonists followed by co-application with NMDA (100 μM), AMPA (100 μM), and GABA (5 μM) (duration of agonist and steroid application is indicated by filled and open bars, respectively). (B) Bar graph represents the mean values of relative changes in the peak (black columns) and steady-state (red columns) responses of native NMDARs, AMPARs, and GABARs recorded in the continuous presence of 10 μM compound 6. Error bars represent SD from five independent measurements. Asterisks mark significance at the level of P < 0.05 (Paired t-test). […]
# Electrophysiological experiments were performed on HEK293 cells transfected with plasmids encoding rat GluN1-1a/GluN2A-D and GFP genes as described previously, ([Petrovic et al., 2005]; [Cais et al., 2008]; [Korinek et al., 2010]) or on primary hippocampal neurons prepared from P0–P1 rats, plated on collagen/poly-D-lysine-coated glass coverslips at a density of ∼50,000 cells/cm^2, and grown in Neurobasal A medium with B27 Supplement (Gibco). […] Agonist-induced responses were low-pass filtered at 2 kHz, digitally sampled at 5 kHz, and analyzed with pClamp software version 10.5 (Molecular Devices). […]
structure (smiles),measurement,setting,value
"C[C@@]12CCC[C@H]1[C@@H]1CC[C@@H]3C[C@H](NC(=O)[C@@H](N)CC(=O)O)CC[C@]3(C)[C@H]1CC2 [Compound 6, (S)-3-amino-4-(((3R,5R,8S,9S,10S,13S,14S)-10,13-dimethylhexadecahydro-1H-cyclopenta[a]phenanthren-3-yl)amino)-4-oxobutanoic acid]","remaining at 8 h, 42.1 μg/mL",[1],97%
same,EC50,HepG2 cells,> 200 µM
same,"inhibition of steady-state vs peak response, NMDARs","native NMDARs; 10 μM compound present continuously, NMDA 100 μM",more efficient inhibitor of tonically activated receptors at the steady–state
same,IC50,"native NMDARs; 100 μM NMDA, hippocampal neurons",8.3 ± 2.1 µM
